Each compound was assayed against T1, Human ATX protein (Homo sapiens, UniProt Q13822) (assay: ATX biochemical FRET assay with FS-3 substrate). Settings: FS-3 2 μM, ATX 1.0 μg/mL, room temperature 2 hours, fluorescence 485/538 nm.
T1 construct: made in house
Description: ATX (Autotaxin) is a 125 KDa glycoprotein with lysophospholipase D (LPLD) activity that generates the bioactive lipid lysophosphatidic acid (LPA) from lysophosphatidylcholine (LPC). The ATX biochemical assay utilizes a FRET (fluorescence resonance energy transfer) technology platform. The fluorescence signal of FRET substrate FS-3 is quenched due to intra-molecular FRET of a fluorophore to a non-fluorescing quencher (Ferguson, C. G., et al., Org Lett. 2006 May 11; 8(10): 2023-2026, which is incorporated by reference in its entirety). ATX catalyzes the hydrolysis of the substrate which separates the dabsyl quencher from the fluorescein reporter, which becomes fluorescent. The reaction is monitored by a SpectraMax M5 (Molecular Devices, Sunnyvale, Calif.) with at excitation wavelength 485 nm and emission wavelength […].
Fatty acid free-BSA (Sigma A8806): 10 mg/ml, in H2O, stored at 4° C.
2×ATX assay buffer: 100 mM Tris, 280 mM NaCl, 10 mM KCl, 2 mM CaCl2, 2 mM MgCl2, pH 7.4.
Human ATX protein: expressed and purified in house. Stored at −80° C.
Substrate FS-3 (Echelon, L-2000): 100 μg in 77.74 μL H2O (1 mM stock), stored at −20° C.
384-well flat bottom plates—Corning #3575.
Compound dilution—All compounds were provided at 10 mM in 100% DMSO. In the first well, 2 μL of 10 mM compound was added to 78 μL of DMSO (1:40 dilution). In subsequent wells 3-fold dilution (total 10 dilutions) were performed.
1×ATX assay buffer was made up with a final concentration of 1 mg/mL fatty acid free-BSA using 2×ATX assay buffer, 10 mg/ml fatty acid free-BSA and ddH2O.
ATX protein was diluted with 1×ATX assay buffer to a concentration of 1.32 μg/mL (1.32×). 38 μL was added per well to the assay plate. The final concentration of ATX in the reaction as 1.0 μg/mL.
2 μL per well of compounds was transferred to provide the desired concentration. The plate was centrifuged, then incubated at room temperature for 30 minutes on the shaker.
FS-3 was diluted with 1×ATX assay buffer to a concentration of FS-3 of 10 μM (5×). Then, 10 μL was added per well to the assay plate. The final concentration of FS-3 in the reaction was 2 μM. The plate was centrifuged. The plate was kept shaking at room temperature for 2 hours. Because FS-3 substrate is light sensitive, plates were kept covered and protected from light.
Fluorescence was measured using SpectraMax M5 (excitation at 485 nm/emission at 538 nm, top read).

Row | SMILES | IC50
1 | CC(c1ccc2c(C(F)F)c(O[C@H]3CC[C@@H](C)CC3)ccc2c1)N1C2CCCC1CC(C(=O)O)C2 (relative stereo) [Example 132, 9-(1-(5-(difluoromethyl)-6-((cis-4-methylcyclohexyl)oxy)naphthalen-2-yl)ethyl)-9-azabicyclo[3.3.1]nonane-3-carboxylic acid] | ≤ 0.1 µM
2 | CC(c1ccc2c(C(F)(F)F)c(O[C@H]3CC[C@@H](C)CC3)ccc2c1)N1C2CCCC1CC(C(=O)O)C2 (stereo partly drawn) [Example 93, 9-(1-(6-((cis-4-Methylcyclohexyl)oxy)-5-(trifluoromethyl)naphthalen-2-yl)ethyl)-9-azabicyclo[3.3.1]nonane-3-carboxylic acid] | ≤ 0.1 µM
3 | CC[C@@H](c1ccc2c(C(F)(F)F)c(O[C@H]3CC[C@@H](C(F)(F)F)CC3)ccc2c1)N1C2CCC1CC(C(=O)O)C2 (single isomer, unassigned) [Example 288] | ≤ 0.25 µM
4 | CC(c1ccc2c(C(F)(F)F)c(O[C@H]3CC[C@@H](C)CC3)ccc2c1)N1C2CCCC1CC(C(=O)O)C2 (single isomer, unassigned; enantiomer 1) [Example 94, 9-(1-(6-((cis-4-Methylcyclohexyl)oxy)-5-(trifluoromethyl)naphthalen-2-yl)ethyl)-9-azabicyclo[3.3.1]nonane-3-carboxylic acid, enantiomer 1] | ≤ 0.1 µM
5 | O=C(O)C1CC2CCCC(C1)N2Cc1ccc2c(C(F)(F)F)c(O[C@H]3CC[C@@H](C(F)(F)F)CC3)ccc2n1 (stereo partly drawn) [Example 101, 9-((5-(trifluoromethyl)-6-((cis-4-(trifluoromethyl)cyclohexyl)oxy)quinolin-2-yl)methyl)-9-azabicyclo[3.3.1]nonane-3-carboxylic acid] | ≤ 0.1 µM
6 | O=C1CC2CC(C(=O)O)CC(C1)N2Cc1ccc2c(C(F)(F)F)c(O[C@H]3CC[C@@H](C(F)(F)F)CC3)ccc2c1 (relative stereo) [Example 170, 9-(5-trifluoromethyl-6-(cis-4-trifluoromethyl-cyclohexyloxy)-naphthalen-2-ylmethyl)-7-oxo-9-azabicyclo[3.3.1]nonane-3-carboxylic acid] | ≤ 0.5 µM
7 | CCC(c1ccc2c(C(F)(F)F)c(O[C@H]3CC[C@@H](C)CC3)ccc2c1)N1C2CCC1CC(C(=O)O)C2 (relative stereo) [Example 127, 8-(1-(6-((cis-4-Methylcyclohexyl)oxy)-5-(trifluoromethyl)naphthalen-2-yl)propyl)-8-azabicyclo[3.2.1]octane-3-carboxylic acid] | ≤ 0.1 µM
8 | CC[C@H]1CC[C@@H](Oc2ccc3cc(CN4C5CCC4CC(C(=O)O)C5)ccc3c2C(F)(F)F)CC1 (relative stereo) [Example 172, 8-((6-((cis-4-ethylcyclohexyl)oxy)-5-(trifluoromethyl)naphthalen-2-yl)methyl)-8-azabicyclo[3.2.1]octane-3-carboxylic acid] | ≤ 0.25 µM
9 | C[C@@H](c1ccc2c(C(F)(F)F)c(O[C@H]3CC[C@@H](C(F)(F)F)CC3)ccc2c1)N1C2CCCC1CC(C(=O)O)C2 (single isomer, unassigned) [Example 90] | ≤ 0.1 µM
10 | CC1(C)C2CCC1(C(=O)O)C(NCc1ccc3c(C(F)(F)F)c(O[C@H]4CC[C@@H](C(F)(F)F)CC4)ccc3c1)C2 (relative stereo) [Example 123, 3-(((5-(trifluoromethyl)-6-((cis-4-(trifluoromethyl)cyclohexyl)oxy)naphthalen-2-yl)methyl)amino)-7,7-dimethylbicyclo[2.2.1]heptane-4-carboxylic acid] | ≤ 0.5 µM
11 | CCC(c1ccc2c(Cl)c(O[C@H]3CC[C@@H](C)CC3)ccc2c1)N1C2CCCC1CC(C(=O)O)C2 (stereo partly drawn) [Example 211, 9-(1-(5-chloro-6-((cis-4-methylcyclohexyl)oxy)naphthalen-2-yl)propyl)-9-azabicyclo[3.3.1]nonane-3-carboxylic acid] | ≤ 0.1 µM
12 | CC[C@H]1CC[C@@H](Oc2ccc3cc(C(C)N4C5CCCC4CC(C(=O)O)C5)ccc3c2C#N)CC1 (stereo partly drawn) [Example 213, 9-(1-(5-cyano-6-((cis-4-ethylcyclohexyl)oxy)naphthalen-2-yl)ethyl)-9-azabicyclo[3.3.1]nonane-3-carboxylic acid] | ≤ 0.1 µM
13 | CCC(c1ccc2c(C(F)(F)F)c(O[C@H]3CC[C@@H](C(F)(F)F)CC3)ccc2c1)N1C2CCC1CC(C(=O)O)C2 (relative stereo) [Example 178, 8-(1-(6-((cis-4-trifluoromethylcyclohexyl)oxy)-5-(trifluoromethyl)naphthalen-2-yl)propyl)-8-azabicyclo[3.2.1]octane-3-carboxylic acid] | ≤ 0.1 µM
14 | CC(c1ccc2c(C(F)(F)F)c(O[C@H]3CC[C@@H](C(F)(F)F)CC3)ccc2c1)N1C2CCC1CC(C(=O)O)C2 (single isomer, unassigned; enantiomer 1) [Example 173, 8-(1-(5-(trifluoromethyl)-6-((cis-4-(trifluoromethyl)cyclohexyl)oxy)naphthalen-2-yl)ethyl)-8-azabicyclo[3.2.1]octane-3-carboxylic acid, enantiomer 1] | ≤ 0.1 µM
15 | O=C(O)C1CC12CN(Cc1ccc3c(C(F)(F)F)c(O[C@H]4CC[C@@H](C(F)(F)F)CC4)ccc3c1)C2 (relative stereo) [Example 149, 2-((5-(trifluoromethyl)-6-((cis-4-(trifluoromethyl)cyclohexyl)oxy)naphthalen-2-yl)methyl)-2-azaspiro[3.2]hexane-5-carboxylic acid] | ≤ 0.25 µM
16 | CC(C)(C)[C@H]1CC[C@@H](Nc2ncc3cc(C(=O)N4C5CCC4CC(C(=O)O)C5)ccc3c2Cl)CC1 (stereo partly drawn) [Example 272, 8-(3-((cis-4-(tert-butyl)cyclohexyl)amino)-4-chloroisoquinoline-7-carbonyl)-8-azabicyclo[3.2.1]octane-3-carboxylic acid] | ≤ 0.25 µM
17 | CC[C@H]1CC[C@@H](Oc2ccc3cc(CN4C5CCC4CC(C(=O)O)C5)ccc3c2Cl)CC1 (relative stereo) [Example 185, 8-((5-Chloro-6-((cis-4-ethylcyclohexyl)oxy)naphthalen-2-yl)methyl)-8-azabicyclo[3.2.1]octane-3-carboxylic acid] | ≤ 0.1 µM
18 | CC(c1ccc2c(Cl)c(O[C@H]3CC[C@@H](C)CC3)ccc2c1)N1C2CCC1CC(C(=O)O)C2 (stereo partly drawn) [Example 205, 8-(1-(5-chloro-6-((cis-4-methylcyclohexyl)oxy)naphthalen-2-yl)ethyl)-8-azabicyclo[3.2.1]octane-3-carboxylic acid] | ≤ 0.25 µM
19 | O=C(O)C1CC(NCc2ccc3c(C(F)(F)F)c(O[C@H]4CC[C@@H](C(F)(F)F)CC4)ccc3c2)C12CCCCC2 (stereo partly drawn) [Example 85, 3-(((5-(trifluoromethyl)-6-((cis-4-(trifluoromethyl)cyclohexyl)oxy)naphthalene-2-yl)methyl)amino)spiro[3.5]nonane-1-carboxylic acid] | ≤ 0.5 µM
20 | O=C(O)C1CC2CCC1N2Cc1ccc2c(C(F)(F)F)c(O[C@H]3CC[C@@H](C(F)(F)F)CC3)ccc2c1 (relative stereo) [Example 165, 7-(5-trifluoromethyl-6-(cis-4-trifluoromethyl-cyclohexyloxy)-naphthalen-2-ylmethyl)-7-azabicyclo[2.2.1]heptane-2-carboxylic acid] | ≤ 0.25 µM
21 | CC[C@H]1CC[C@@H](Oc2ccc3cc(C(=O)N4C5CCCC4CC(C(=O)O)C5)ccc3c2C#N)CC1 (stereo partly drawn) [Example 221, 9-(5-cyano-6-((cis-4-ethylcyclohexyl)oxy)-2-naphthoyl)-9-azabicyclo[3.3.1]nonane-3-carboxylic acid] | ≤ 0.1 µM
22 | CC[C@H]1CC[C@@H](Oc2ccc3cc(C(=O)N4C5CCC4CC(C(=O)O)C5)ccc3c2Cl)CC1 (stereo partly drawn) [Example 215, 8-(5-chloro-6-((cis-4-ethylcyclohexyl)oxy)-2-naphthoyl)-8-azabicyclo[3.2.1]octane-3-carboxylic acid] | ≤ 0.5 µM
23 | CC[C@H]1CC[C@@H](Oc2ccc3nc(NC4C5CCC4CC(C(=O)O)C5)ccc3c2C(F)(F)F)CC1 (stereo partly drawn) [Example 280, 8-((6-((cis-4-ethylcyclohexyl)oxy)-5-(trifluoromethyl)quinolin-2-yl)amino)bicyclo[3.2.1]octane-3-carboxylic acid] | ≤ 0.1 µM
24 | C[C@H]1CC[C@@H](Oc2ccc3cc(CN4C5CCCC4CC(C(=O)O)C5)ccc3c2C(F)(F)F)CC1 (stereo partly drawn) [Example 97, 9-((6-((cis-4-Methylcyclohexyl)oxy)-5-(trifluoromethyl)naphthalen-2-yl)methyl)-9-azabicyclo[3.3.1]nonane-3-carboxylic acid] | ≤ 0.1 µM
